The CheMixHub viscosity set

Test: xn = mol fraction of the nth substance listed

CC(=O)O.OCCNCCO + CC(=O)O.NCCO
viscosity [mPa·s], 101.3 kPa
Details | x2 = 0.132 | x2 = 0.2549 | x2 = 0.3688 | x2 = 0.4761 | x2 = 0.5761 | x2 = 0.671 | x2 = 0.7597 | x2 = 0.8444 | x2 = 0.9235
293.15 K | 2246 | 2377 | 2507 | 2638 | 2769 | 2900 | 3031 | 3161 | 3292
298.15 K | 1454 | 1544 | 1635 | 1725 | 1815 | 1906 | 1996 | 2086 | 2177
303.15 K | 965.1 | 1025 | 1084 | 1144 | 1204 | 1263 | 1323 | 1383 | 1442
308.15 K | 657.7 | 698.1 | 738.5 | 778.9 | 819.3 | 859.7 | 900 | 940.4 | 980.8
313.15 K | 459.4 | 487.4 | 515.3 | 543.3 | 571.3 | 599.2 | 627.2 | 655.1 | 683.1
318.15 K | 328.1 | 348 | 367.8 | 387.6 | 407.4 | 427.3 | 447.1 | 466.9 | 486.7
323.15 K | 239.3 | 253.7 | 268 | 282.3 | 296.7 | 311 | 325.3 | 339.7 | 354

CC(=O)OCCC(C)C + c1ccccc1
viscosity [mPa·s], 101 kPa
Details | 298.15 K | 308.15 K
x1 = 0.0442 | 0.606 | 0.532
x1 = 0.1509 | 0.614 | 0.547
x1 = 0.2507 | 0.623 | 0.563
x1 = 0.3514 | 0.635 | 0.58
x1 = 0.4526 | 0.65 | 0.6
x1 = 0.4814 | 0.655 | 0.606
x1 = 0.5508 | 0.667 | 0.621
x1 = 0.6491 | 0.686 | 0.644
x1 = 0.7484 | 0.709 | 0.67
x1 = 0.8475 | 0.735 | 0.698
x1 = 0.9443 | 0.763 | 0.728

CC(=O)OCCC(C)C + Brc1ccccc1
viscosity [mPa·s], 101 kPa
Details | 298.15 K | 303.15 K | 308.15 K | 313.15 K
x1 = 0.0443 | 1.026 | – | 0.952 | –
x1 = 0.0719 | – | 1.003 | – | 0.883
x1 = 0.1494 | 0.992 | – | 0.925 | –
x1 = 0.1499 | – | 0.991 | – | 0.869
x1 = 0.2334 | – | 0.974 | – | 0.852
x1 = 0.2513 | 0.962 | – | 0.898 | –
x1 = 0.3222 | – | 0.949 | – | 0.828
x1 = 0.3494 | 0.933 | – | 0.875 | –
x1 = 0.4137 | – | 0.921 | – | 0.801
x1 = 0.4478 | 0.908 | – | 0.853 | –
x1 = 0.4962 | 0.895 | – | 0.842 | –
x1 = 0.509 | – | 0.893 | – | 0.774
x1 = 0.5517 | 0.881 | – | 0.83 | –
x1 = 0.6182 | – | 0.859 | – | 0.743
x1 = 0.6512 | 0.857 | – | 0.811 | –
x1 = 0.7358 | – | 0.823 | – | 0.711
x1 = 0.7497 | 0.834 | – | 0.792 | –
x1 = 0.8504 | 0.812 | – | 0.773 | –
x1 = 0.8603 | – | 0.787 | – | 0.677
x1 = 0.9487 | 0.791 | – | 0.756 | –
